Laboratory results from patent US12448461B2, “ABCB5 ligands and substrates” (Children's Medical Center Corporation, priority 2018, dated 2025).

Assays:
[1] = molecular target: T1, purified recombinant human ABCB5 (Homo sapiens, UniProt Q2M3G0); test: Competition ELISA: PIP1, PIP2 or PIP3 binding to ABCB5 with increasing doses of competitor
T1 sequence (Q2M3G0 1-812 isoform Q2M3G0-1): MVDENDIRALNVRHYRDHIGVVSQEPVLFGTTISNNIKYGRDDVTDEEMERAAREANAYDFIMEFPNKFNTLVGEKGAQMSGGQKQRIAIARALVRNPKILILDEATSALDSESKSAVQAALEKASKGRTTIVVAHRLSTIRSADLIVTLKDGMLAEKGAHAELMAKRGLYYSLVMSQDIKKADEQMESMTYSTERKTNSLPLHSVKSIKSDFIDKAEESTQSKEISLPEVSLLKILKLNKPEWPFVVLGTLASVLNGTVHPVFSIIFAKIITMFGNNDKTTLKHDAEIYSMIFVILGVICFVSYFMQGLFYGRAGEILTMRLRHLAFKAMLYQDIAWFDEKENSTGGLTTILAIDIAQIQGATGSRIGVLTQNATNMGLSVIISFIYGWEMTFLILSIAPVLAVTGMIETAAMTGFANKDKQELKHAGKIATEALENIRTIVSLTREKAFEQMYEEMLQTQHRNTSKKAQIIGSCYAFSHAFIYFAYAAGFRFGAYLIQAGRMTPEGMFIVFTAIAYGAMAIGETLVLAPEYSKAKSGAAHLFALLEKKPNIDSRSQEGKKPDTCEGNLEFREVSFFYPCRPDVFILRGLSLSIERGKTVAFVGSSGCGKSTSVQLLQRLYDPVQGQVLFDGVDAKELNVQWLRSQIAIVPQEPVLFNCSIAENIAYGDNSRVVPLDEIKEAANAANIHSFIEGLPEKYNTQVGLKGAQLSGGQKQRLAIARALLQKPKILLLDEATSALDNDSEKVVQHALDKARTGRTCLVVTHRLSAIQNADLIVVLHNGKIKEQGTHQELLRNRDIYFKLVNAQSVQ
Description: ELISA plates coated with PIP1, PIP2 or PIP3 were incubated with purified recombinant human ABCB5 (P-glycoprotein ABCB5 [Homo sapiens] GenBank: AAO73470.1) for binding, in the absence or presence of increasing doses of PtdIns-(1,2-dioctanoyl), a synthetic analog of natural phosphatidylinositol (PtdIns) containing C8:0 fatty acids at the sn-1 and sn-2 positions (CAS Registry Number 899827-36-2).

[2] = test system: Tyr::CreER; BrafCA; Ptenlox/lox genetic mouse melanoma model; test: Vemurafenib treatment in 4-HT inducible genetic mouse melanoma model on ABCB5 WT or KO background; assay type: in vivo; conditions: vemurafenib-treated ABCB5 WT mice
[3] = molecular target: T2, murine Abcb5 (Mus musculus, UniProt B5X0E4); test: ELISA: plates coated with PIP1, PIP2 or PIP3 incubated with wildtype mouse Abcb5-expressing skin tissue; assay type: binding; conditions: absent in Abcb5 knockout tissue
T2 construct: wildtype mouse Abcb5-expressing skin tissue; from tissue; host or cells: wild-type mouse skin tissue
T2 sequence (B5X0E4 1-1255): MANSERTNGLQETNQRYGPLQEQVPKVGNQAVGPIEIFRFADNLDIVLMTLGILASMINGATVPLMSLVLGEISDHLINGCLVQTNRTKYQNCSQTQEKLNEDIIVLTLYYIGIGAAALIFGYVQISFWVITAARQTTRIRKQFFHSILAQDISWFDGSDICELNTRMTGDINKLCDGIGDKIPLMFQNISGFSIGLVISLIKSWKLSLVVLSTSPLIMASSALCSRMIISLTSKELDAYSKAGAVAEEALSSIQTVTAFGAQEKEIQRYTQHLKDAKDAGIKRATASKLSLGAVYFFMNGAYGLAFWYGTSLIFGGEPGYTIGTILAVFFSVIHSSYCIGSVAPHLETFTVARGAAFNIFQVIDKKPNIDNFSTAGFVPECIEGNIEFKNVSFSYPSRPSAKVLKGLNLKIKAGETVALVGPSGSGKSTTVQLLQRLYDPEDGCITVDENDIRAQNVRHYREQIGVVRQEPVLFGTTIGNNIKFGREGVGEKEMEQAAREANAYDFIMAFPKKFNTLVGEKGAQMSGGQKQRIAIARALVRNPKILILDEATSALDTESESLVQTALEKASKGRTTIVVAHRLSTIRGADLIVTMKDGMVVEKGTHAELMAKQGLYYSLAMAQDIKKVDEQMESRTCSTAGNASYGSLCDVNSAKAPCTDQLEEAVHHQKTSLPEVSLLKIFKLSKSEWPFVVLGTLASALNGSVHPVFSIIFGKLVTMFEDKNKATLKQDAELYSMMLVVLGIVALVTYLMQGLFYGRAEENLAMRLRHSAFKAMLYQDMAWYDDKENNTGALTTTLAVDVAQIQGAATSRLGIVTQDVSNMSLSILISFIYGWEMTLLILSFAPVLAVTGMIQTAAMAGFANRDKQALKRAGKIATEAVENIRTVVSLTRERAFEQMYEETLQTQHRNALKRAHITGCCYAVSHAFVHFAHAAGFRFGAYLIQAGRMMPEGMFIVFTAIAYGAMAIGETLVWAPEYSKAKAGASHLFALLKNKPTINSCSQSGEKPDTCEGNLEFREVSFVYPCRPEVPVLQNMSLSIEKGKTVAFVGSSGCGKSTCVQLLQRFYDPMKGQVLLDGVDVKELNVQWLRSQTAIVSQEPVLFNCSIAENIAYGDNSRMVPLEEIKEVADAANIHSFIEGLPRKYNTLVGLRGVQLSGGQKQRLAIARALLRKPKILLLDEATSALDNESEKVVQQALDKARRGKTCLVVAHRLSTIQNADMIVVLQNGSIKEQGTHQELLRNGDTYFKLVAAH
Description: (§1) ELISA plates coated with PIP1, PIP2 or PIP3 were incubated with either purified recombinant human ABCB5 isoform 2 (812 aa, NCBI Reference Sequence: NP_848654.3), wildtype mouse Abcb5-expressing skin tissue, or Abcb5 non-expressing skin tissue derived from ABCB5 knockout mice (as a specificity control), followed by bound ABCB5 detection using a murine ABCB5-specific monoclonal antibody (Ksander et al Nature 2014). […] Similar results were obtained using the murine ABCB5 mAb clone 3C2-1D12 (Frank NY et al. J Biol Chem. 2003) as a detection antibody.

[4] = test system: ABCB5; test: Surface plasmon resonance (SPR) binding and antibody competition on PIP1, PIP2 and PIP3 surfaces
[5] = molecular target: T3, recombinant human ABCB5 isoform 2 (Homo sapiens, UniProt Q2M3G0); test: ELISA: plates coated with PIP1, PIP2 or PIP3 incubated with recombinant human ABCB5 isoform 2; assay type: binding
T3 sequence (Q2M3G0 446-1257): T1 sequence (Q2M3G0 1-812 isoform Q2M3G0-1)
Description: as §1

[6] = molecular target: T4, ABCB5 (Homo sapiens, UniProt Q2M3G0); test: Immunoprecipitation with anti-PIP2 or anti-PIP3 antibody from ABCB5-expressing melanoma cells, ABCB5 immunoblot; assay type: binding
T4 construct: Immunoprecipitation from human ABCB5-expressing melanoma cells; endogenous in cells
T4 sequence (Q2M3G0 1-1257): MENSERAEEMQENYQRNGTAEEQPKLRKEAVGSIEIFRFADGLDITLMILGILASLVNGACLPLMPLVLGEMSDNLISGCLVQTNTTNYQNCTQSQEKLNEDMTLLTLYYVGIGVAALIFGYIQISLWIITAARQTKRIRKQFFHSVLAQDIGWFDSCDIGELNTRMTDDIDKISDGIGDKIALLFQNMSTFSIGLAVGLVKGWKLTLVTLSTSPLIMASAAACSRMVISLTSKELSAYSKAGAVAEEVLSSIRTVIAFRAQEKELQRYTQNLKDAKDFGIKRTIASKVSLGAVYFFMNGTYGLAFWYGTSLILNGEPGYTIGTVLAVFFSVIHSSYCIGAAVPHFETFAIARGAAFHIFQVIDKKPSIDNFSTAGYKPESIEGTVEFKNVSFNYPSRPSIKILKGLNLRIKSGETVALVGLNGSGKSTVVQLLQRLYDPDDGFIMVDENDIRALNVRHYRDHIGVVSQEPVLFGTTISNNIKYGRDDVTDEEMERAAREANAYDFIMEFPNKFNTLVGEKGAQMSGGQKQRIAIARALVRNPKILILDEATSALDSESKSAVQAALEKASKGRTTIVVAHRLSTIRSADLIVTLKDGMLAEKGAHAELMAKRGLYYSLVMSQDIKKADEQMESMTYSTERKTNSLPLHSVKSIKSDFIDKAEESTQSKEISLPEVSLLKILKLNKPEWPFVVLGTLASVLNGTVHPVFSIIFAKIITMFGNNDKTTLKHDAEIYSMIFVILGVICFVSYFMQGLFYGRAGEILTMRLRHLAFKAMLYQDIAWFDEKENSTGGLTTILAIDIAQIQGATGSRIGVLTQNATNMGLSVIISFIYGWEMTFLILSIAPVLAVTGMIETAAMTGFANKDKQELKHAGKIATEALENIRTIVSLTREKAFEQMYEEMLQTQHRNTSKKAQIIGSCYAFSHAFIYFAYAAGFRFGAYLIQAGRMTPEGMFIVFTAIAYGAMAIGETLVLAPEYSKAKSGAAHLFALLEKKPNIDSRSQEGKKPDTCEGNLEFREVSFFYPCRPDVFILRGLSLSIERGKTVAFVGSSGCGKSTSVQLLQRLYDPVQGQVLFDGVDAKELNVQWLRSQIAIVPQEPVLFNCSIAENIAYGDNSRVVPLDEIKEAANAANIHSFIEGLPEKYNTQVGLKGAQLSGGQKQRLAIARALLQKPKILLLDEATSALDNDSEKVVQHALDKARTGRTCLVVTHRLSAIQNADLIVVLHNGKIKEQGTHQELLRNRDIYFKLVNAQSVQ
From the text: PIP2 pulldown was confirmed using immunoblotting with PIP2 antibody in FIG. 1A (lower panel).

For CCCCCCCC(=O)OCC(COP(=O)(O)OC1C(O)C(O)C(O)C(O)C1O)OC(=O)CCCCCCC (stereo not drawn) [PtdIns-(1,2-dioctanoyl)], the “inhibition of binding of PIP1, PIP2 or PIP3 to ABCB5” value ([1]; increasing doses) was “competitively inhibit” and the “concentration of apparent saturation of the inhibitory effect” value ([1]; inhibition of PIP1, PIP2 or PIP3 binding to ABCB5) was 0.1 mM.

In the case of CCCS(=O)(=O)Nc1ccc(F)c(C(=O)c2c[nH]c3ncc(-c4ccc(Cl)cc4)cc23)c1F [vemurafenib], the “formation of vemurafenib-resistant tumors” value [2] is reported as 100%.

PIP3 was tested, and the “binding to murine Abcb5” value [3] was “bound”, the “binding to ABCB5 by SPR” value [4] was “binding” and the “relative efficiency of binding to ABCB5” value ([5]; PIP2 and PIP3 compared with PIP1) was “more efficient”. For the same molecule, the “binding to recombinant human ABCB5” value ([5]; detection with ABCB5-specific monoclonal antibody) was “bound” and the “co-precipitation of ABCB5 on lipid pulldown” value [6] was “co-precipitation of ABCB5 protein”.

With CCCCCCCC(=O)OC[C@H](COP(=O)(O)O[C@@H]1[C@H](O)[C@H](O)[C@@H](OP(=O)(O)O)[C@H](OP(=O)(O)O)[C@H]1O)OC(=O)CCCCCCC [PI (4,5) P2, diC8] the “binding to ABCB5 by SPR” value [4] was “shown to bind”.
